Reference: patent publication US6638933B2, “Bicyclic imidazo-3-yl-amine derivatives” (Gruenenthal GmbH, priority 1999, dated 2003)

Tested on: phenylquinone-induced writhing in mice
Test: Analgesia test in the writhing test in mice (phenylquinone-induced writhing)
Assay type: in vivo
Conditions: male NMRI mice, phenylquinone i.p. ten minutes after substance
Experimental: Analgesia Test in the Writhing Test in Mice
The analgesic activity was investigated in the phenylquinone-induced writhing in mice (modified according to I. C. Hendershot, J. Forsaith, J. Pharmacol. Exp. Ther. 125, 237-240 (1959)). Male NMRI mice weighing 25-30 g were used. Groups of 10 animals per substance dose received 0.3 ml/mouse of a 0.02% aqueous solution of phenylquinone (phenylbenzoquinone, Sigma, Deisenhofen; solution prepared with the addition of 5% ethanol and storage in a water-bath at 45° C.) administered intraperitoneally ten minutes after intravenous or subcutaneous administration of the test substances. The animals were placed individually in observation cages. The number of pain-induced extension movements (so-called writhing reactions=straightening of the body with stretching out of the hind extremities) 5-20 minutes after administration of the phenylquinone was counted by means of a push-button counter. Animals which receive only physiological saline solution were also run as a control. The substances were tested in the standard dosage of 10 mg/kg intravenously or 21.5 mg/kg subcutaneously. The percentage inhibition (% inhibition) of the writhing reaction by a substance was calculated in accordance with the following equation: [formula]

Row | Structure (SMILES) | % inhibition of the writhing reaction at 10 mg/kg intravenously (writhing counted 5-20 minutes) [%] | further results
1 | c1coc(-c2nc3ccccn3c2NC2CCCCC2)c1 [Example 20, Cyclohexyl-(2-furan-2-yl-imidazo[1,2-a]pyridin-3-yl)-amine] | 43 | 
2 | CCOP(=O)(CNc1c(-c2ccccc2)nc2ccccn12)OCC [Example 12, [(2-Phenyl-imidazo[1,2-a]pyridin-3-ylamino)-methyl]-phosphonic acid diethyl ester] | 90 | 
3 | Cc1nc2ccccn2c1NC1CCCCC1 [Example 24, Cyclohexyl-(2-methyl-imidazo[1,2-a]pyridin-3-yl)-amine] | 56 | 
4 | CC(C)(C)Nc1c(C(C)(C)C)nc2ccccn12 [Example 13, tert-Butyl-(2-tert-butyl-imidazo[1,2-a]pyridin-3-yl)-amine] |  | % inhibition of the writhing reaction, intravenously, at 2.15 mg/kg (2.15 mg/kg (stated in cell) in the intravenous column): 86 at 2.15 mg/kg %
5 | CC(C)(C)Nc1c(-c2ccccn2)nc2ccccn12 [Example 22, tert-Butyl-(2-pyridin-2-yl-imidazo[1,2-a]pyridin-3-yl)-amine] | 53 | 
6 | CC(C)(C)Nc1c(-c2cccnc2)nc2ccccn12 [Example 21, tert-Butyl-(2-pyridin-3-yl-imidazo[1,2-a]pyridin-3-yl)-amine] |  | % inhibition of the writhing reaction at 21.5 mg/kg subcutaneously (21.5 mg/kg subcutaneously, writhing counted 5-20 minutes): 80%
7 | CC(C)(C)Nc1c(-c2cccs2)nc2ccccn12 [Example 23, tert-Butyl-(2-thiophen-2-yl-imidazo[1,2-a]pyridin-3-yl)-amine] | 62 | 
